According to patent US11345712B2, “Protein-targeting compounds and pharmaceutical compositions thereof, and their therapeutic applications” (BioTheryX, Inc., priority 2019, dated 2022):

Legend:
MOLM-13 cells = experiment: MOLM-13 cell viability assay (CellTiter-Glo); assay type: cell-based; conditions: 3 days, concentration of 1 μM; for cytotoxicity at 1 µM: Homo sapiens, MOLM-13, 72 h, read-out: Antiproliferative Activity (inhibition, MOLM-13 cell viability)
Method in brief: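 MOLM-13 AML cells in RPMI 1640 with 10% FBS, seeded at 2,500 cells/well and exposed to compound or DMSO for 3 days at 37° C, 5% CO2. Viability read as CellTiter-Glo luminescence after 10 min shaking.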

GSPT1 = biological target: T1, GSPT1 (Homo sapiens, UniProt P15170+Q96SW2); experiment: Protein degradation assay (Western blot) in MV-4-11 cells: GSPT1; assay type: cell-based; conditions: 6-8 h, compound concentration 0.1 μM
T1 construct: Whole cell extracts were prepared using a radioimmunoprecipitation assay (RIPA) buffer; endogenous in cells; host or cells: MV-4-11
Method: (§1) MV-4-11 cells were grown in RPMI 1640 media supplemented with 10% fetal bovine serum, streptomycin, and penicillin. The cells were cultured at approximately 10^6 cells per mL and incubated in DMSO or a compound for 6-8 h. Whole cell extracts were prepared using a radioimmunoprecipitation assay (RIPA) buffer. Briefly, 3×10^6 cells were washed once in PBS, and the cell pellets were resuspended in the RIPA buffer and incubated for 15 min on ice. Cells debris was removed by centrifugation and the cleared whole cell lysates were transferred to new tubes for further analysis.
(§2) For Western blot analysis, whole cell protein extracts were separated on 4-12% SDS-polyacrylamide gels, transferred to nitrocellulose, and probed with primary antibodies. Membranes were subsequently washed and probed with IRDYE® secondary antibodies. The signal was detected using an ODYSSEY® Imaging System.
(§3) The following antibodies were used in the assays described herein: anti-eRF3/GSPT1: Abcam, ab126090 (Cambridge, Mass.); anti-Ikaros: Abcam, ab191394 (Cambridge, Mass.); anti-CK1α: Abcam, ab108296 (Cambridge, Mass.); β-actin (8H10D10) mouse monoclonal antibody: Cell Signaling Technology, #3700 (Danvers, Mass.); IRDYE® 680RD goat anti-rabbit antibody: LI-COR, 926-68071 (Lincoln, Nebr.); and IRDYE® 800CW goat anti-mouse antibody: LI-COR, 926-32210 (Lincoln, Nebr.).
(§4) The protein degradation results are summarized in Table 1, wherein A represents a value no less than 80%, B represents a value less than 80% but no less than 50%, C represents a value less than 50% but no less than 25%, and D represents a value less than 25% protein degradation at a compound concentration of 0.1 μM.

IKAROS = biological target: T2, IKAROS (Homo sapiens, UniProt Q13422+Q96SW2); experiment: Protein degradation assay (Western blot) in MV-4-11 cells: IKAROS; assay type: cell-based; conditions: 6-8 h, compound concentration 0.1 μM
T2 construct: Whole cell extracts were prepared using a radioimmunoprecipitation assay (RIPA) buffer; endogenous in cells; host or cells: MV-4-11
Method: as §1, §2, §3, §4

CK1α = biological target: T3, CK1α (Homo sapiens, UniProt P48729+Q96SW2); experiment: Protein degradation assay (Western blot) in MV-4-11 cells: CK1α; assay type: cell-based; conditions: 6-8 h, compound concentration 0.1 μM
T3 construct: Whole cell extracts were prepared using a radioimmunoprecipitation assay (RIPA) buffer; endogenous in cells; host or cells: MV-4-11
Method: as §1, §2, §3, §4

IL-1β = experiment: Cytokine modulation assay, LPS-induced PBMCs or CD14+ monocytes: IL-1β; assay type: cell-based; conditions: 100 ng/mL LPS 18-24 h; for inhibition at 0.1 µM: 0.1 μM compound; for inhibition at 1 µM: 1 μM compound
Method: (§5) Frozen primary blood mononuclear cells (PBMCs) or frozen CD14+ mobilized peripheral blood monocytes were quick thawed, washed once with RPMI-1640 (10% FBS/1% Pen-Strep), and plated in 96 well plates at 200,000 cells per well. The cells were pretreated with DMSO only or with a compound for 1 h and then induced with 100 ng/mL lipopolysaccharide (LPS) for 18-24 h. The supernatant was analyzed for IL-1β, IL-6, and TNFα using Meso Scale assays. The negative control wells were treated with DMSO.

TNF-α = experiment: Cytokine modulation assay, LPS-induced PBMCs or CD14+ monocytes: TNFα; assay type: cell-based; conditions: 100 ng/mL LPS 18-24 h; for inhibition at 0.1 µM: 0.1 μM compound; for inhibition at 1 µM: 1 μM compound
Method: as §5

THLE-2 cells = experiment: THLE-2 cell viability assay (CellTiter-Glo); assay type: cell-based; conditions: Homo sapiens, 72 h, 3 days
Method: THLE-2 cells were cultured using BEGM™ BULLETKIT™ supplemented with 10% fetal bovine serum, streptomycin, and penicillin. The cells were plated in white walled 96-well plates at 5,000 cells/well. After the cells were incubated in DMSO (control) or a compound for 3 days at 37° C. and 5% CO2, 100 μL of CELLTITER-GLO® (CTG) was added to each well. Following a 10 minutes incubation with shaking, luminescence was measured using an ENVISION® Multimode plate reader. In this example, compound II-1 was compared to reference compound A: […]

IL-2 = IL-2 analysis in anti-CD3 stimulated PBMCs; assay type: cell-based, human; conditions: 0.01 μM compound, PBMCs on anti-CD3 coated plates, 24 h
Method: For the IL-2 analysis, 96 well plates were precoated with 1 μg/mL anti-human CD3 antibody (OKT3, eBioscience Inc., San Diego, Calif.). After washed with PBS, the compound was added (50 μL/well), followed by addition of PBMCs diluted at 3-4 million cells/mL (150 μL/well). The plates were incubated for 24 h and the supernatants were collected for IL-2 analysis. IL-2 activity was measured as fold difference from the DMSO control. At a concentration of 0.01 μM, compounds I-1 and I-3 stimulated IL-2 production with 3.7 and 3.9 fold change, respectively, over the DMSO control.

IL-6 = experiment: Cytokine modulation assay, LPS-induced PBMCs or CD14+ monocytes: IL-6; assay type: cell-based; conditions: 0.1 μM compound, 100 ng/mL LPS 18-24 h
Method: as §5

T3 sequence (P48729 whole entry): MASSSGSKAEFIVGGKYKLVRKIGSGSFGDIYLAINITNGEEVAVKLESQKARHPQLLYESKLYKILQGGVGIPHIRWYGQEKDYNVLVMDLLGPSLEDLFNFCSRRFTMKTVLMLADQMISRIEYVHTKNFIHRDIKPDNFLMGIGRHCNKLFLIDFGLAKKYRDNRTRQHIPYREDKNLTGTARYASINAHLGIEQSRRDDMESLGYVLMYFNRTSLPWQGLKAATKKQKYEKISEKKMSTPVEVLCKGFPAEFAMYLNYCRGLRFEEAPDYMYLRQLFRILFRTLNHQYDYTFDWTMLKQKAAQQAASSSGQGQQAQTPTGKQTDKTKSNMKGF
T3 sequence (Q96SW2 whole entry): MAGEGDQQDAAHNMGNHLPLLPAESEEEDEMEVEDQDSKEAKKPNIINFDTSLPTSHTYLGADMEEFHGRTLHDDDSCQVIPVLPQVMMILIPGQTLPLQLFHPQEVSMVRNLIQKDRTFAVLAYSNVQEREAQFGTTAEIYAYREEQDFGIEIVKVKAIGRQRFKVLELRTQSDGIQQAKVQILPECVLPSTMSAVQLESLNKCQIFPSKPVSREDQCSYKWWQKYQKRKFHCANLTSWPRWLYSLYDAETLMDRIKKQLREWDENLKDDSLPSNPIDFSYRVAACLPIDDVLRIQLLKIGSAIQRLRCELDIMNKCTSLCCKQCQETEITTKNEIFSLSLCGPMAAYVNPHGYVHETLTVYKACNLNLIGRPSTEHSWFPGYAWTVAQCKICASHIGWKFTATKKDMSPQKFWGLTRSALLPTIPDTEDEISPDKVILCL
T3 sequence (Q16531 whole entry partner): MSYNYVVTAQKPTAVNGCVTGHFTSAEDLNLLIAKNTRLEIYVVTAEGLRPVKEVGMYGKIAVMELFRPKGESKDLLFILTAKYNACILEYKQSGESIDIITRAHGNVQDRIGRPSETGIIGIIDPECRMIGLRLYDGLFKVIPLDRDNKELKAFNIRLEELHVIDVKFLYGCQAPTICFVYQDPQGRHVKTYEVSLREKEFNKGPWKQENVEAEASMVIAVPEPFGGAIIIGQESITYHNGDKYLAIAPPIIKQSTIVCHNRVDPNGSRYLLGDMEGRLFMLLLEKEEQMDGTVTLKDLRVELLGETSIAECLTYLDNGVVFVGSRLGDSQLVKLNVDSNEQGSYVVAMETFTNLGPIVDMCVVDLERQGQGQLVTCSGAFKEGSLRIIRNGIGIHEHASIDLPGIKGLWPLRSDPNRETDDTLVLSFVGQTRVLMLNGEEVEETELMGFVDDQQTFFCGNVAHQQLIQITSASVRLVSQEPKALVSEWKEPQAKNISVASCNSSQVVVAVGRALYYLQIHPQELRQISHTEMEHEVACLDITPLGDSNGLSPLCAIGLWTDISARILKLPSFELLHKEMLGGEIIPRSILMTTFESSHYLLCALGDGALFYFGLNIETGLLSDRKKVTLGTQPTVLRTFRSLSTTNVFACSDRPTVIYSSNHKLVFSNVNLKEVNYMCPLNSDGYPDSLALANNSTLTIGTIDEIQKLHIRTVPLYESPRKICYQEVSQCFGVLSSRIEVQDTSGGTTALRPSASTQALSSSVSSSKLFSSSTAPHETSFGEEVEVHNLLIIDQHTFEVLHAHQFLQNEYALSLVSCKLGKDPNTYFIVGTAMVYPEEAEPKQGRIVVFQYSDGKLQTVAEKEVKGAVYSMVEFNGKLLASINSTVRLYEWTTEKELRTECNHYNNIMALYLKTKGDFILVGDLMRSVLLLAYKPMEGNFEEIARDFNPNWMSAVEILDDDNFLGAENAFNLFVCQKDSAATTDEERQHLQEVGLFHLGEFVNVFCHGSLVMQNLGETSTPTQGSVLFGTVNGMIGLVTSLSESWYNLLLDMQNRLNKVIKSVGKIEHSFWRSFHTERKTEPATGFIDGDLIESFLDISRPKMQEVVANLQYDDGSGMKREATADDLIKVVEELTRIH
T2 sequence (Q13422 whole entry): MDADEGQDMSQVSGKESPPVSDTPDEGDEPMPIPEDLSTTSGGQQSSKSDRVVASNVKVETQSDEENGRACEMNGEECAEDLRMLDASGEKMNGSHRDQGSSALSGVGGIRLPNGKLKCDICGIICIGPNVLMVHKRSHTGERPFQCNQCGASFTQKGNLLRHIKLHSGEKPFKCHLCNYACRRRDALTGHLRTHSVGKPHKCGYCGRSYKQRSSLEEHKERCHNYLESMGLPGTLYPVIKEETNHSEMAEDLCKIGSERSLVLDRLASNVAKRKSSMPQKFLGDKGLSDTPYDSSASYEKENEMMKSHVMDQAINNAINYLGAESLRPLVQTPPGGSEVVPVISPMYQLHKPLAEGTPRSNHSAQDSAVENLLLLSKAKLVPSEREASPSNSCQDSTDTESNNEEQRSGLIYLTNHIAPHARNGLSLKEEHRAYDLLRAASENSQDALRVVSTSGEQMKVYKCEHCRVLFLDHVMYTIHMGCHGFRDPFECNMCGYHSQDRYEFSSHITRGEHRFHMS
T2 sequence (Q96SW2 whole entry): as the sequence (Q96SW2 whole entry) above
T2 sequence (Q16531 whole entry partner): as the sequence (Q16531 whole entry partner) above
T1 sequence (P15170 whole entry): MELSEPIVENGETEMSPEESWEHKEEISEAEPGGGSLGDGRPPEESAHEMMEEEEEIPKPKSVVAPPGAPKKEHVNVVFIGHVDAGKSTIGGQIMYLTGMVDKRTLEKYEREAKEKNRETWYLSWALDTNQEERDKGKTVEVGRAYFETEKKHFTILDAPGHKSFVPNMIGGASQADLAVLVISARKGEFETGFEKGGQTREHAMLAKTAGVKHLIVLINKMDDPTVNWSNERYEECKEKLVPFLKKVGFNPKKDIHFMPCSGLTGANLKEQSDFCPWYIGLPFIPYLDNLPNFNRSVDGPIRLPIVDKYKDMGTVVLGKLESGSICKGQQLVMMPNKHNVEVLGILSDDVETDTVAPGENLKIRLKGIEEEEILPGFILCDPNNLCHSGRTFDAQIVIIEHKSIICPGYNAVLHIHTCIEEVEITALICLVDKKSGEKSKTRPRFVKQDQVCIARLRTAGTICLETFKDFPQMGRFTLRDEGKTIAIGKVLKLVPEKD
T1 sequence (Q96SW2 whole entry): as the sequence (Q96SW2 whole entry) above
T1 sequence (Q16531 whole entry partner): as the sequence (Q16531 whole entry partner) above

Compound: O=C1CCC(N2Cc3cc(CNC(=O)C(=O)c4ccc(C5(C(F)(F)F)CC5)cc4)ccc3C2=O)C(=O)N1 (centres unmarked) [Compound I-5, N-((2-(2,6-dioxopiperidin-3-yl)-1-oxoisoindolin-5-yl)methyl)-2-oxo-2-(4-(1-(trifluoromethyl)cyclopropyl)phenyl)acetamide]
- cytotoxicity at 1 µM (MOLM-13 cells): > 80%
- Protein Degradation GSPT1 (GSPT1): A (a value no less than 80%)
- Protein Degradation IKAROS (IKAROS): A (a value no less than 80%)
- Protein Degradation CK1α (CK1α): C (a value less than 50% but no less than 25%)

Compound: CC(C)c1ccc(C(=O)C(=O)NCc2scc3c2CN(C2CCC(=O)NC2=O)C3=O)s1 (centres unmarked) [Compound I-4, N-((5-(2,6-dioxopiperidin-3-yl)-4-oxo-5,6-dihydro-4H-thieno[3,4-c]pyrrol-1-yl)methyl)-2-(5-isopropylthiophen-2-yl)-2-oxoacetamide]
- cytotoxicity at 1 µM (MOLM-13 cells): > 80%
- Protein Degradation GSPT1 (GSPT1): C (a value less than 50% but no less than 25%)
- inhibition at 0.1 µM (IL-1β): > 80%
- inhibition at 1 µM (IL-1β): > 80%
- inhibition at 0.1 µM (TNF-α): > 80%
- inhibition at 1 µM (TNF-α): > 80%
- Protein Degradation IKAROS (IKAROS): A (a value no less than 80%)

Compound: Cc1ccc(NC(=O)NCc2cc3c(s2)C(=O)N(C2CCC(=O)NC2=O)C3)cc1N(C)C (centres unmarked) [II-1, 1-(3-(dimethylamino)-4-methylphenyl)-3-((5-(2,6-dioxopiperidin-3-yl)-6-oxo-5,6-dihydro-4H-thieno[2,3-c]pyrrol-2-yl)methyl)urea]
- IC50 (THLE-2 cells): 8.9 µM
- cytotoxicity at 1 µM (MOLM-13 cells): > 80%
- Protein Degradation GSPT1 (GSPT1): B (a value less than 80% but no less than 50%)
- inhibition at 1 µM (IL-1β): 25 to 50%
- inhibition at 1 µM (TNF-α): 25 to 50%

Compound: CC(C)(C)c1ccc(C(=O)C(=O)NCc2ccc3c(c2)CN(C2CCC(=O)NC2=O)C3=O)cc1 (centres unmarked) [Compound I-2, 2-(4-(tert-butyl)phenyl)-N-((2-(2,6-dioxopiperidin-3-yl)-1-oxoisoindolin-5-yl)methyl)-2-oxoacetamide]
- cytotoxicity at 1 µM (MOLM-13 cells): > 80%
- Protein Degradation GSPT1 (GSPT1): A (a value no less than 80%)
- Protein Degradation IKAROS (IKAROS): A (a value no less than 80%)
- Protein Degradation CK1α (CK1α): B (a value less than 80% but no less than 50%)

Compound: CC(C)(C)c1ccc(C(=O)C(=O)NCc2scc3c2CN(C2CCC(=O)NC2=O)C3=O)cc1 (centres unmarked) [Compound I-1, 2-(4-(tert-butyl)phenyl)-N-((5-(2,6-dioxopiperidin-3-yl)-4-oxo-5,6-dihydro-4H-thieno[3,4-c]pyrrol-1-yl)methyl)-2-oxoacetamide]
- Antiproliferative Activity (inhibition, MOLM-13 cell viability) (MOLM-13 cells): A (a value no less than 80%)
- Protein Degradation GSPT1 (GSPT1): B (a value less than 80% but no less than 50%)
- inhibition at 0.1 µM (IL-1β): > 80%
- IL-2 production, fold change over the DMSO control (IL-2): 3.7 fold
- inhibition at 0.1 µM (IL-6): 50 to 80%
- inhibition at 0.1 µM (TNF-α): > 80%
- Protein Degradation IKAROS (IKAROS): A (a value no less than 80%)
- Protein Degradation CK1α (CK1α): B (a value less than 80% but no less than 50%)

Compound: Cc1ccc(NC(=O)NCc2cc3c(s2)C(=O)N(C2CCC(=O)NC2=O)C3)cc1Cl (centres unmarked) [reference compound A, reference compound]
- IC50 (THLE-2 cells): 0.8 µM

Compound: Cc1c(CNC(=O)C(=O)c2ccc(C3(C(F)(F)F)CC3)cc2)ccc2c1CN(C1CCC(=O)NC1=O)C2=O (centres unmarked) [Compound I-60, N-((2-(2,6-dioxopiperidin-3-yl)-4-methyl-1-oxoisoindolin-5-yl)methyl)-2-oxo-2-(4-(1-(trifluoromethyl)cyclopropyl)phenyl)acetamide]
- cytotoxicity at 1 µM (MOLM-13 cells): 50 to 80%

Compound: Cc1ccc(CCCC(=O)NCc2scc3c2CN(C2CCC(=O)NC2=O)C3=O)cc1Cl (centres unmarked) [II-41, 4-(3-chloro-4-methylphenyl)-N-((5-(2,6-dioxopiperidin-3-yl)-4-oxo-5,6-dihydro-4H-thieno[3,4-c]pyrrol-1-yl)methyl)butanamide]
- cytotoxicity at 1 µM (MOLM-13 cells): 25 to 50%

Compound: CC(C)(C)c1ccc(C(O)C(=O)NCc2scc3c2CN(C2CCC(=O)NC2=O)C3=O)cc1 (centres unmarked) [II-132, 2-(4-(tert-butyl)phenyl)-N-((5-(2,6-dioxopiperidin-3-yl)-4-oxo-5,6-dihydro-4H-thieno[3,4-c]pyrrol-1-yl)methyl)-2-hydroxyacetamide]
- cytotoxicity at 1 µM (MOLM-13 cells): 25 to 50%

Compound: Cc1ccc(NCCCCCNCc2scc3c2CN(C2CCC(=O)NC2=O)C3=O)cc1Cl (centres unmarked) [II-64, 3-(1-(((5-((3-chloro-4-methylphenyl)amino)pentyl)amino)methyl)-4-oxo-4H-thieno[3,4-c]pyrrol-5(6H)-yl)piperidine-2,6-dione]
- cytotoxicity at 1 µM (MOLM-13 cells): < 25%

Compound: CCC(C(=O)NCc1scc2c1CN(C1CCC(=O)NC1=O)C2=O)c1ccc(C)c(Cl)c1 (centres unmarked) [II-87, 2-(3-chloro-4-methylphenyl)-N-((5-(2,6-dioxopiperidin-3-yl)-4-oxo-5,6-dihydro-4H-thieno[3,4-c]pyrrol-1-yl)methyl)butanamide]
- cytotoxicity at 1 µM (MOLM-13 cells): < 25%

Compound: NC(C(=O)NCc1scc2c1CN(C1CCC(=O)NC1=O)C2=O)c1cccc(Cl)c1 (centres unmarked) [II-89, 2-amino-2-(3-chlorophenyl)-N-((5-(2,6-dioxopiperidin-3-yl)-4-oxo-5,6-dihydro-4H-thieno[3,4-c]pyrrol-1-yl)methyl)acetamide]
- cytotoxicity at 1 µM (MOLM-13 cells): < 25%

Compound: CCN(CC)c1ccc(NC(=O)NCc2cc3c(s2)C(=O)N(C2CCC(=O)NC2=O)C3)cc1C (centres unmarked) [II-52, 1-(4-(diethylamino)-3-methylphenyl)-3-((5-(2,6-dioxopiperidin-3-yl)-6-oxo-5,6-dihydro-4H-thieno[2,3-c]pyrrol-2-yl)methyl)urea]
- cytotoxicity at 1 µM (MOLM-13 cells): < 25%

Compound: O=C1CCC(N2Cc3cc(CNC(=O)Nc4cccc(N5CCCC5)c4)sc3C2=O)C(=O)N1 (centres unmarked) [II-99, 1-((5-(2,6-dioxopiperidin-3-yl)-6-oxo-5,6-dihydro-4H-thieno[2,3-c]pyrrol-2-yl)methyl)-3-(3-(pyrrolidin-1-yl)phenyl)urea]
- cytotoxicity at 1 µM (MOLM-13 cells): > 80%

Compound: CC(C)(C)c1ccc(C(=O)C(=O)NCc2cc(F)cc3c2CN(C2CCC(=O)NC2=O)C3=O)cc1 (centres unmarked) [Compound I-29, 2-(4-(tert-butyl)phenyl)-N-((2-(2,6-dioxopiperidin-3-yl)-6-fluoro-1-oxoisoindolin-4-yl)methyl)-2-oxoacetamide]
- cytotoxicity at 1 µM (MOLM-13 cells): > 80%

Compound: Cc1ccc(NC(=O)NCc2cc3c(s2)C(=O)N(C2CCC(=O)NC2=O)C3=O)cc1N(C)C (centres unmarked) [II-114, 1-(3-(dimethylamino)-4-methylphenyl)-3-((5-(2,6-dioxopiperidin-3-yl)-4,6-dioxo-5,6-dihydro-4H-thieno[2,3-c]pyrrol-2-yl)methyl)urea]
- cytotoxicity at 1 µM (MOLM-13 cells): 25 to 50%

Compound: COc1cc(OC)c(C(=O)C(=O)NCc2cccc3c2CN(C2CCC(=O)NC2=O)C3=O)c(OC)c1 (centres unmarked) [Compound I-79, 2-(2,4,6-trimethoxyphenyl)-N-((2-(2,6-dioxopiperidin-3-yl)-1-oxoisoindolin-4-yl)methyl)-2-oxoacetamide]
- cytotoxicity at 1 µM (MOLM-13 cells): < 25%

Compound: O=C1CCC(N2Cc3c(csc3CNC(=O)C(=O)c3ccccc3)C2=O)C(=O)N1 (centres unmarked) [Compound I-8, 2-phenyl-N-((5-(2,6-dioxopiperidin-3-yl)-4-oxo-5,6-dihydro-4H-thieno[3,4-c]pyrrol-1-yl)methyl)-2-oxoacetamide]
- cytotoxicity at 1 µM (MOLM-13 cells): < 25%
